Patent US7223793B2, “Phenolic acid derivatives and composition for preventing or treating blood lipid level-related diseases comprising the same” (Bionutrigen Co., Ltd., priority 2001, dated 2007)
Marks after values point to notes of the source that are not given here.

Legend:
Sprague-Dawley rats = test: Effect on blood lipid level in rats fed high-cholesterol diet (Experimental Example 1); assay type: in vivo, rat; conditions: rats on 1% cholesterol diet, 5 weeks; for Atherogenic index (AI): (total cholesterol − HDL cholesterol)/HDL cholesterol; for HDL-cholesterol/total cholesterol / HDL-cholesterol / Total cholesterol / Triglyceride: plasma, 0.02% lovastatin or 0.046% BN30028 in diet; for HDL-cholesterol / Total cholesterol / Triglyceride: average ± standard deviation
From the text: 30 of 4-week-old male white Sprague-Dawley rats (Bio Genomics Inc., Korea), each weighing about […], were divided into three groups by a randomized block design. The rats of the three groups were fed with three different high-cholesterol diets, i.e., AIN-76 laboratory animal diets (TEKLAD premier Co., Madison, Wis., U.S.A.) containing 1% cholesterol (Control group), 1% cholesterol plus 0.02% lovastatin (Choongwae Pharma. Corp., Korea) and 1% cholesterol plus 0.046% BN30028, respectively, as shown in Table I.
The rats were allowed free access to the specified diets and water for 5 weeks and the ingestion amounts were recorded daily. The rats were weighed every 5 days, and then the record was analyzed.
Blood samples were taken from vena hypogastrica of the rats of the three dietary groups raised in Step 1 and centrifuged to separate plasma. The total cholesterol level was measured by using a diagnosis kit purchased from Sigma (USA), Cat. No.: C0534, applying the method of Allain et al. (Allain et al., Clin. Chem., 20, 470-475 (1974)). The HDL fraction was separated by using a kit purchased from Sigma, Cat. No.: 352-1 applying the heparin-manganese precipitation method (Waenic R. G. and Albers J. J., J Lipid Res., 19, 65-76 (1978)) and the HDL-cholesterol level was measured by using a kit purchased from Sigma, Cat. No.: C9908. The triglyceride level was measured using a kit purchased from Sigma, Cat. No.: 336-10) applying the lipase-glycerol phosphate oxidase method (McGowan, M. W. et al., Clin. Chem., 29, 538-542(1983)). All the data are expressed by average±standard deviation.

[1] = system: New Zealand White rabbits; test: Fatty streak in the main artery of cholesterol-fed rabbits (Experimental Example 2); assay type: in vivo, rabbit; conditions: 8 weeks; for Proportion of stained region (fatty streak region) per unit area of the main artery: 1% cholesterol + RC4 diet, lovastatin 1 mg/kg or BN30028 0.05 wt %, Oil Red O, average ± standard deviation; for Proportion of the fatty streak region compared to the control group / Arterial endothelium, macrophage-lipid complex / atherosclerotic plaque (photographs): 1% cholesterol diet; for Arterial endothelium, macrophage-lipid complex / atherosclerotic plaque (photographs): FIGS. 1a-1c
Procedure: The rabbits raised in Step 1 were sacrificed and their chests were incised. The incision was performed downward to the diaphragm along the aortic arch and the fat surrounding the main artery was removed. The main artery was incised in the middle along the longitudinal axis from the second aortic intercostal artery anastomoses to the seventh aortic intercostal artery anastomoses and fixed with 10% neutral buffered formalin for 24 hours. Then, the incised main artery was pinned to a dish for staining of fatty streaks according to the method of Esper, E., et al. (J. Lab. Clin. Med., 121, 103-110 (1993)). The staining carried out by washing the artery three times with propylene glycol for 2 minutes respectively. The artery was stained for 30 minutes with a saturated solution of Oil Red O (ORO, Sigma Co.) dissolved in propylene glycol. Thereafter, the artery was washed twice with 85% propylene glycol for 3 minutes respectively to remove the remaining staining solution and, then once with physiological saline. The artery was photographed and the photograph was traced. The proportion (%) of stained region (fatty streak region) per unit area of the main artery was determined with an image analyzer (LEICA, Q-600, Germany). The significant differences between the test groups were tested by student t-test using Microsoft excel (version 7.0) program

ACAT = ACAT activity in liver microsomes of treated rabbits (Experimental Example 4); assay type: in vivo, rabbit; conditions: liver microsomes of rabbits fed 8 weeks; for ACAT activity: lovastatin 1 mg/kg or BN30028 0.05 wt %, average ± standard deviation; for ACAT activity inhibition: relative to control group
Procedure: The rabbits raised as described in step 1 of the Experimental Example 2 were sacrificed by decapitation and the livers were removed from the rabbits. 1 g of the liver tissue taken from each rabbit was homogenized in 5 ml of homogenization medium (0.1 M KH2PO4, pH 7.4, 0.1 mM EDTA and 10 mM β-mercaptoethanol). The homogenate was centrifuged at 3,000×g for 10 minutes at 4° C. and the supernatant thus obtained was centrifuged at 15,000×g for 15 minutes at 4° C. to obtain a supernatant. The resulting supernatant was put into an ultracentrifuge tube (Beckman) and centrifuged at 100,000×g for 1 hour at 4° C. to obtain microsomal pellets, which were then suspended in 3 ml of the homogenization medium and centrifuged at 100,000×g for 1 hour at 4° C. The pellets thus obtained were suspended in 1 ml of the homogenization medium. The protein concentration of the resulting suspension was determined by Lowry's method and then adjusted to the range of 4 to 8 mg/ml. The resulting suspension was stored in a deep freezer (Biofreezer, Forma Scientific Inc.).
6.67 μl, of 1 mg/ml cholesterol solution in acetone was mixed with 6 μl of 10% Triton WR-1339 (Sigma Co.) in acetone. Acetone was removed from the mixture by evaporation under a nitrogen flow. To the resulting mixture, distilled water was added to adjust the concentration of cholesterol to 30 mg/ml.
To 10 μl of the resulting aqueous cholesterol solution, 10 μl of 1 M KH2PO4 (pH 7.4), 5 μl of 0.6 mM bovine serum albumin (BSA), 10 μl of the microsome solution obtained in Step 1 and 55 μl of distilled water (total 90 μl) were added. The mixture was pre-incubated in a water bath at 37° C. for 30 minutes.
10 μl of (1-^14C) oleyl-CoA solution (0.05 μCi, final concentration: 10 μM) was added to the pre-incubated mixture and the resulting mixture was incubated in a water bath at 37° C. for 30 minutes. 500 μl of isopropanol:heptane mixture (4:1 (v/v)), 300 μl of heptane and 200 μl of 0.1 M KH2PO4 (pH 7.4). were added to the mixture. The mixture was mixed vigorously using a vortex mixer and then allowed to stand at room temperature for 2 minutes.
200 μl of the resulting supernatant was put in a scintillation bottle and 4 ml of scintillation fluid (Lumac) was added thereto. The mixture was assayed for radioactivity with 1450 Microbeta liquid scintillation counter (Wallacoy, Finland). ACAT activity was calculated as picomoles of cholesteryl oleate synthesized per minute per mg protein (pmoles/min/mg protein). All the data are expressed by average±standard deviation(p<0.05).

Row | SMILES | Atherogenic index (AI) (Sprague-Dawley rats) | HDL-cholesterol/total cholesterol (Sprague-Dawley rats) [%] | HDL-cholesterol (Sprague-Dawley rats) [mg/dL] | Total cholesterol (Sprague-Dawley rats) [mg/dL] | Triglyceride (Sprague-Dawley rats) [mg/dL] | Increase of triglyceride as compared to the control group (Sprague-Dawley rats) [%] | Reduction of total plasma cholesterol level as compared to the control group (Sprague-Dawley rats) [%] | Proportion of stained region (fatty streak region) per unit area of the main artery [1] | Proportion of the fatty streak region compared to the control group [1] | Arterial endothelium, macrophage-lipid complex / atherosclerotic plaque (photographs) [1] | ACAT activity (ACAT) [pmol/minute/mg protein] | ACAT activity inhibition (ACAT) [%] | Reduction of triglyceride as compared to the control group (Sprague-Dawley rats) [%]
1 | CC[C@H](C)C(=O)O[C@H]1C[C@@H](C)C=C2C=C[C@H](C)[C@H](CC[C@@H]3C[C@@H](O)CC(=O)O3)[C@H]21 [Lovastatin, reference compound] | 2.3 ± 0.2 | 30.2 ± 0.5 | 23.4 ± 0.4 | 77.4 ± 1.8 | 69.0 ± 4.7 | 25 | 6 | 18.2 ± 10.4^b % | significantly reduced | clean | 96.2 ± 21.3 | 23.8 | –
2 | COC(=O)C(Cc1ccccc1)NC(=O)CCc1ccc(O)c(O)c1 (stereo not drawn) [BN30028, 2-[3-(3,4-dihydroxyphenyl)propionylamino]-3-phenyl propionic acid methyl ester] | 1.84 ± 0.2 | 35.1 ± 0.6 | 25.6 ± 0.6 | 72.8 ± 3.7 | 47.6 ± 1.6 | – | 12 | 16.1 ± 9.6^b % | significantly reduced | clean | 93.9 ± 21.5 | 26.2 | 15
